Experimental data: US20110086850A1, “RADIOSENSITIZATION OF TUMORS WITH INDAZOLPYRROLOTRIAZINES FOR RADIOTHERAPY” (Board of Regents, The University of Texas System, priority 2008, published 2011)

Legend:
[1] = tested on: HN-5 tumor xenografts; assay: Tumor growth delay assay, HN-5 tumor xenografts; format: in vivo, nude male mice; conditions: AC480 120 mg/kg gavage once daily for 14 days
Protocol: The terms “dose enhancement ratio” and “dose enhancement factor” are used interchangeably herein and are used herein to measure the fold increase in cytotoxic efficacy of radiation when delivered in the presence of a radiosensitizer. In certain embodiments, dose enhancement ratio is calculated by dividing the radiation dose required to achieve a surviving fraction in the absence of the radiosensitizer with the radiation dose required to achieve the same surviving fraction in the presence of the radiosensitizer at a specified concentration. This calculation method can be used to assess the radiosensitizing effect of an radiosensitizer in an in vitro system, such as cells in culture. […]
The effect of AC480 on radioresponse was assessed by tumor growth delay assay using HN-5 tumor xenografts generated in nude male mice.
Specifically, HN-5 cells (1×10^6) were injected into the right leg of 3-4 month old nude male mice (nu-nu/Ncr) (SPF mice). […] Tumors were measured with calipers 3 times/week to determine tumor growth delay. […]

[2] = tested on: γ-H2AX foci; assay: γ-H2AX foci immunocytochemistry (DNA repair); format: cell-based; conditions: 24 hrs after radiation; AC480 600 nM (FIG. 7)
Protocol: The control is shown as open circle and solid line.
(§1) The radiosensitization effect of AC480 was evaluated in vitro using head neck squamous cell carcinoma cells, HNSCC-10, which express HER2 only and have no detectable amount of HER1 protein, and HN-5 cells, which express high levels of HER1 and HER2 proteins. […] AC480 was added to cell cultures that contained either HN-5 or HNSCC-10 cells 6 hrs before and kept in the medium for additional 66 hrs after irradiation. The cancerous cells were then irradiated with graded single doses of γ-radiation. At various predetermined time points after irradiation, the cells were assessed: (a) for clonogenic survival using clonogenic survival assays; (b) for apoptosis using aTUNEL assay; (c) for cell cycle distribution with FACS; and (d) for protein expression related to the cell cycle, apoptosis, and DNA repair, using Western blotting and immunoprecipitation methods.
The extent of DNA repair is quantified by measuring the generation of nuclear foci at the site of DNA damage by phosphorylated H2AX (γ-H2AX), which is involved in the retention of repair and signaling factor complexes at sites of DNA double strand breaks. γ-H2AX is detected with antibodies to phosphorylated H2AX using traditional immunohistochemistry (See, e.g., Friesner et al., Mol. Biol. Cell. 2005, ^-16, 2566-2576; and Dote et al., Clin. Cancer Res. 2005, 11, 4571-4579). […]

[3] = tested on: adenocarcinomas expressing HER1 and/or HER2 in salivary gland, breast, non-small cell lung, and gastric cancer cell lines; conditions: Wong et al., Clin. Cancer Res. 2006; cited from earlier work
[4] = tested on: HN-5 cells; assay: Cell proliferation assay (MTT assay); format: cell-based; conditions: AC480 50 nM—1 μM, 72 hrs
Protocol: as §1
(§2) The effect of AC480 on cell proliferation of HN-5 and UMSCC-10 cells was determined using 3-[4,5-dimethylthiozol-2-yl]-2,5-diphenyltetrazolium bromide (MTT) assay. HN-5 and UMSCC-10 cells are plated in 96-well plates and treated with a series of concentrations of AC480. […] The cells are then lysed in 150 μL of ethanol/DMSO mixture (1:1), and the absorbance read at 540 nm using a 96-well plate reader.

[5] = tested on: UMSCC-10 cells; assay: Cell proliferation assay (MTT assay); format: cell-based; conditions: AC480 50 nM—1 μM, 72 hrs
Protocol: as §1, §2

[6] = tested on: HN-5 cells; assay: Clonogenic survival assay with γ-irradiation; format: cell-based; conditions: for dose enhancement ratio at survival fraction of 0.5: cell line not named in the sentence (HN-5 by context)
Protocol: as §1
(§3) HN-5 or UMSCC-10 cells were counted and plated. Twenty-four hours later, the cells in culture were then exposed to AC480 at 300 or 600 nM for 6 hrs. The cells were then irradiated with graded doses at 2, 4, or 6 Gy of γ-rays using a ^137Cs source (3.7 Gy/min). Sixty-six hours later, culture media with AC480 were removed and fresh media were added. Media change was also done for untreated control cells at the same time. After 11 to 14 days of incubation, colonies were counted. […] The dose enhancement ratio at survival fraction of 0.5 was 1.30 for 300 nM and 1.43 for 600 nM of AC480. Dose enhancement ratio was calculated by dividing the radiation dose required to achieve a surviving fraction of 0.5 in the absence of AC480 with the radiation dose required to achieve the same surviving fraction in the presence of AC480 at a specified concentration.

[7] = tested on: UMSCC-10 cells; assay: Clonogenic survival assay with γ-irradiation; format: cell-based; conditions: AC480 300 or 600 nM from 6 hrs before to 66 hrs after 2, 4 or 6 Gy γ-rays
Protocol: as §1, §3

[8] = tested on: HN-5 cells; assay: TUNEL assay, radiation-induced apoptosis; format: cell-based
Protocol: as §1
(§4) Apoptotic cells are detected by in-situ labeling of fragmented DNA with enzymatically labeled nucleotides using the TUNEL method as described in commercial protocols or by following the procedure described in Sgonc et al., Trends in Genetic 1994, 10, 41-42. AC480 increased radiation-induced apoptosis in HN-5 but not in UMSCC-10 cells (FIG. 5).

[9] = tested on: UMSCC-10 cells; assay: TUNEL assay, radiation-induced apoptosis; format: cell-based
Protocol: as §1, §4

[10] = tested on: HN-5 cells; assay: Cell-cycle analysis (FACS) after radiation; format: cell-based
Protocol: as §1
(§5) Cell cycle distribution is measured by determining the ploidy of cells by staining the cells with fluorescent dye and sorting by FACS using a commercially available kit. AC480 increased radiation-induced accumulation of HN-5 but not in UMSCC-10 cells in the G1 cell cycle phase (FIG. 6).

[11] = tested on: UMSCC-10 cells; assay: Cell-cycle analysis (FACS) after radiation; format: cell-based
Protocol: as §1, §5

## Cc1c(NC(=O)OC[C@@H]2COCCN2)cn2ncnc(Nc3ccc4c(cnn4Cc4cccc(F)c4)c3)c12 [AC480]
[1]; before and during radiation (5 Gy×5 days)
  effect on radioresponse of HN-5 tumors in vivo: improve the radioresponse
[1]; with XRT 5 Gy×5 consecutive days, HN-5 xenografts in nude mice
  enhancement factor (tumor growth delay): 1.9
[2]
  presence of γ-H2AX foci after radiation: prolonged
[3]
  cytotoxicity: cytotoxic
[4]
  effect on cell growth (MTT): inhibits the growth
[5]
  effect on cell growth (MTT): not
[6]; 300 nM AC480
  dose enhancement ratio at survival fraction of 0.5: 1.30
[6]; 600 nM AC480
  dose enhancement ratio at survival fraction of 0.5: 1.43
[6]; HN-5 cells, AC480 300 or 600 nM from 6 hrs before to 66 hrs after 2, 4 or 6 Gy γ-rays
  effect on radiosensitivity (clonogenic survival): significantly enhanced
[7]
  effect on radiosensitivity (clonogenic survival): not
[8]
  effect on radiation-induced apoptosis (TUNEL): increased
[9]
  effect on radiation-induced apoptosis (TUNEL): not
[10]
  effect on radiation-induced accumulation of cells in the G1 cell cycle phase: increased
[11]
  effect on radiation-induced accumulation of cells in the G1 cell cycle phase: not
